Experimental data: patent US11723362B2, “Broad-spectrum synergistic antimicrobial compositions” (The United States of America, as represented by the …, priority 2019, dated 2023)

Columns and labels:
P. aeruginosa = experiment: Minimum inhibitory concentration (MIC) in Mueller-Hinton broth, pH 7.4; format: cell-based, Pseudomonas aeruginosa; parameters: Minimum inhibitory concentration: unit not given here; details: for Minimum inhibitory concentration: Table 2, ATCC 9027
Experimental: (§1) This example illustrates the preparation of testing parameters for antimicrobial activity of components of the inventive composition and related compositions for comparison. […] Microbes were grown on Mueller-Hinton agar (MHA, Sigma-Aldrich, St. Louis, Mo.) for 7 days until heavy sporulation was present. Spores from two agar plates were captured in sterile phosphate-buffered saline (PBS) using a sterile swab. Spores were enumerated by serial dilution in Dey-Engley neutralizing broth (DEB; Sigma-Aldrich) and spread plating on MHA. A typical spore stock was determined to contain ˜2×10^7 spores/mL. Bacteria were grown in MH broth for 24 h at 37° C., enumerated by plating, and diluted to the desired concentration as indicated.
(§2) To assess the antimicrobial activity of hydroxamic acids and derivatives, the inhibitory properties of commercially available hydroxylamines and hydroxamic acids were compared to their alcohol and carboxylic acid analogues diluted in Mueller-Hinton broth at pH 7.4 (Table 1).
Guanylhydrazones 7 and 8, which represent a class of broad-spectrum antimicrobials, alone and in combination with hydroxamic acids were evaluated.

E. coli = experiment: as above; format: cell-based, Escherichia coli
Experimental: as §1, §2

A. brasiliensis = experiment: as above; format: cell-based, Aspergillus brasiliensis; parameters: Minimum inhibitory concentration: unit not given here; details: for Minimum inhibitory concentration: Table 2
Experimental: as §1, §2

S. aureus = experiment: as above; format: cell-based, Staphylococcus aureus
Experimental: as §1, §2

C. albicans = experiment: as above; format: cell-based, Candida albicans
Experimental: as §1, §2

[1] = test system: Pseudomonas aeruginosa ATCC 9027; experiment: Bactericidal activity in ionic surfactant hand wash / foamy hand soap base formula (HW); format: cell-based; details: pH 7.0; for Day 3 Log Reduction / Day 10 Log Reduction: HW, 1 × 10^6 CFU/ml, 37° C.
Experimental: This example illustrates the preparation of testing parameters for antimicrobial activity of components of the inventive composition and related compositions for comparison. […] Mold were grown and minimum inhibitory tests performed as previously reported (see e.g., Buckley, H. L. et al. ACS Sustain. Chem. Eng. 5, 4320-4331, 2017). Microbes were grown on Mueller-Hinton agar (MHA, Sigma-Aldrich, St. Louis, Mo.) for 7 days until heavy sporulation was present. Spores from two agar plates were captured in sterile phosphate-buffered saline (PBS) using a sterile swab. Spores were enumerated by serial dilution in Dey-Engley neutralizing broth (DEB; Sigma-Aldrich) and spread plating on MHA. A typical spore stock was determined to contain ˜2×10^7 spores/mL. Bacteria were grown in MH broth for 24 h at 37° C., enumerated by plating, and diluted to the desired concentration as indicated.
To test the various compounds, a foamy hand soap base formula was made with sodium lauryl sulfate (SLS, 2.4% w/w; Sulfochem SLS-PHP [30% active], The Lubrizol Corporation, Wickliffe, Ohio) and cocoamidopropyl betaine (CAPB, 1.2% w/w; Mackam 35 [30% active], Solvay S.A, Brussels, Belgium) in deionized water and sterilized by filtration (0.22 μm, PVDF; VWR, Radnor, Pa.). All test formulas were adjusted to the desired pH using citric acid and/or NaOH. All tubes were inoculated with 250 μL of spore inoculum (described above) to a total volume of 5 mL, for a final spore concentration of ˜1×10^6 spores/mL in each tube. […] About 100 μL of each inoculated foamy hand soap mixture was diluted 1:10 in DEB and 100 μL of this dilution was spread plated on MHA at several time points (e.g. 3 d, 7 d, 13 d, 18 d, and 20 d). Plates were incubated at room temperature for 3-5 days for mold (1-2 days for bacteria) and colonies enumerated.

[2] = test system: Aspergillus brasiliensis ATCC 16404; experiment: Fungicidal activity in ionic surfactant hand wash / foamy hand soap base formula (HW); format: cell-based; details: pH 7.0; for Log reduction Week 1 / Log reduction Week 2: 1 × 10^6 CFU/mL, 25° C.; for CFU/mL, incubation time 3 d / CFU/mL, incubation time 7 d / CFU/mL, incubation time 13 d / CFU/mL, incubation time 18 d / CFU/mL, incubation time 20 d: 0.4% hydroxamic acid alone, minimum detection limit 5.0 × 10^1; for Log Reduction Day 12 / Log Reduction Day 5: substance alone 0.5%, high loading 10^7 CFU/mL
Experimental: as §1
All test formulas were adjusted to the desired pH using citric acid and/or NaOH. […] All tubes were kept at room temperature (˜21-22° C.) for 3 weeks. About 100 μL of each inoculated foamy hand soap mixture was diluted 1:10 in DEB and 100 μL of this dilution was spread plated on MHA at several time points (e.g. 3 d, 7 d, 13 d, 18 d, and 20 d). Plates were incubated at room temperature for 3-5 days for mold (1-2 days for bacteria) and colonies enumerated.
The preservative activity of a hydroxamic acid/guanylhydrazone combination was compared to other antimicrobial mixtures in an ionic surfactant-containing formula. […] The fungicidal properties of a mixture of benzhydroxamic acid and guanylhydrazone (1+7) was compared to commercial antimicrobials representing different functional classes (Table 3).

[3] = hand soap formula, 0.4% 1 alone

| Compound | MIC (P. aeruginosa) [wt %] | MIC (E. coli) [wt %] | MIC (A. brasiliensis) [wt %] | MIC (S. aureus) [wt %] | MIC (C. albicans) [wt %] | other results |
| --- | --- | --- | --- | --- | --- | --- |
| Oc1ccccc1 [Phenol] | 0.2 | >0.5 | 0.1 | 0.2 | 0.2 | – |
| O=C1CCC(=O)N1O [N-hydroxysuccinimide] | 0.5 | >0.5 | >0.5 | 0.5 | – | – |
| CC(C)(C)O [t-Butanol] | 20 | >0.5 | >0.5 | 5 | 0.5 | – |
| OCc1ccccc1 [Benzyl alcohol] | 0.2 | 0.5 | 0.5 | 0.5 | 0.5 | – |
| CCCCc1ccc(C(=O)NO)cc1 [4-n-butylbenzhydroxamic acid 6, 4-n-butylbenzhydroxamic acid] | – | – | – | – | – | Day 3 Log Reduction ([1]; substance alone 0.4%): 0 Log; Day 10 Log Reduction ([1]; substance alone 0.4%): 0 Log; Log reduction Week 1 ([2]; HW, 0.4 wt %): 4 Log; Log reduction Week 2 ([2]; HW, 0.4 wt %): none; Minimum inhibitory concentration (P. aeruginosa): 0.1; Minimum inhibitory concentration (A. brasiliensis): 0.008 |
| CC(=O)NO [Acetohydroxamic acid] | 0.5 | 0.5 | 0.5 | 0.5 | 0.2 | – |
| CCc1ccc(C(=O)NO)cc1 [4-ethylbenzhydroxamic acid 3, 4-ethylbenzhydroxamic acid] | – | – | – | – | – | Day 3 Log Reduction ([1]; substance alone 0.2%): 1 Log; Day 10 Log Reduction ([1]; substance alone 0.2%): 0 Log; Log reduction Week 1 ([2]; HW, 0.2 wt %): 4 Log; Log reduction Week 2 ([2]; HW, 0.2 wt %): 1 Log; Log reduction Week 1 ([2]; HW, 0.5 wt %): 4 Log; Log reduction Week 2 ([2]; HW, 0.5 wt %): 4 Log; Minimum inhibitory concentration (P. aeruginosa): 0.5; Minimum inhibitory concentration (A. brasiliensis): 0.06 |
| CC(C)c1ccc(C(=O)NO)cc1 [4-isopropylbenzhydroxamic acid 5, 4-isopropylbenzhydroxamic acid] | – | – | – | – | – | CFU/mL, incubation time 3 d ([2]; hand soap formula): >2.5 × 10^4 CFU/mL; CFU/mL, incubation time 7 d ([2]; hand soap formula): 1.0 × 10^4 CFU/mL; CFU/mL, incubation time 13 d ([2]; hand soap formula): 1.0 × 10^2 CFU/mL; CFU/mL, incubation time 18 d ([2]; hand soap formula): <5.0 × 10^1 CFU/mL; CFU/mL, incubation time 20 d ([2]; hand soap formula): <5.0 × 10^1 CFU/mL; Minimum inhibitory concentration (A. brasiliensis): 0.04 |
| CC(C)(C)ON.Cl [O-tert-butylhydroxylamine HCl] | 0.2 | 0.5 | 0.5 | 0.1 | 0.5 | – |
| Sorbitan caprylate | – | – | – | – | – | Log Reduction Day 12 ([2]; HW): 0 Log |
| O=C(NO)c1ccccc1 [Benzhydroxamic acid 1, Benzhydroxamic acid] | 0.1 | 0.5 | 0.02 | 0.06 | 0.03 | CFU/mL after 7 d contact time [1, 3]: 2 × 10^4 CFU/mL; Log reduction Week 1 ([2]; HW, 0.5 wt %): 1 Log; Log reduction Week 2 (day 12) ([2]; HW, 0.5 wt %, day 12): 4 Log; Log Reduction Day 5 ([2]; HW): 1 Log; Log Reduction Day 12 ([2]; HW): 4 Log; CFU/mL after 7 d contact time [2, 3]: 1 × 10^3 CFU/mL; Minimum inhibitory concentration (P. aeruginosa): 0.1; Minimum inhibitory concentration (A. brasiliensis): 0.02 |
| Cl.NOCc1ccccc1 [O-benzylhydroxylamine HCl] | 0.2 | 0.2 | 0.2 | 0.2 | 0.5 | – |
| O=C(O)c1ccccc1 [Benzoic acid] | 0.2 | 0.2 | 0.2 | 0.2 | 0.2 | – |
| O=C(O)c1ccccc1O [Salicylic acid] | 0.2 | 0.2 | 0.5 | 0.1 | 0.5 | – |
| CCCOC(=O)c1cc(O)c(O)c(O)c1 [Propyl gallate] | – | – | – | – | – | Log Reduction Day 5 ([2]; HW): 1 Log; Log Reduction Day 12 ([2]; HW): 1 Log |
| CO [Methanol] | 20 | – | 0.5 | 20 | 20 | – |
| Cc1ccc(C(=O)NO)cc1 [4-methylbenzhydroxamic acid 2, 4-methylbenzhydroxamic acid] | – | – | – | – | – | Day 3 Log Reduction ([1]; substance alone 0.2%): 2 Log; Day 10 Log Reduction ([1]; substance alone 0.2%): 4 Log; Log reduction Week 1 ([2]; HW, 0.2 wt %): 4 Log; Log reduction Week 2 ([2]; HW, 0.2 wt %): 4 Log; Minimum inhibitory concentration (P. aeruginosa): 0.3; Minimum inhibitory concentration (A. brasiliensis): 0.02 |
| CON.Cl [O-methylhydroxylamine HCl] | 0.1 | 0.2 | 0.1 | 0.06 | 0.5 | – |
| CCON.Cl [O-ethylhydroxylamine HCl] | 0.1 | 0.1 | 0.1 | 0.1 | 0.2 | – |
| CCCc1ccc(C(=O)NO)cc1 [4-n-propylbenzhydroxamic acid 4, 4-n-propylbenzhydroxamic acid] | – | – | – | – | – | CFU/mL, incubation time 3 d ([2]; hand soap formula): >2.5 × 10^4 CFU/mL; CFU/mL, incubation time 7 d ([2]; hand soap formula): >2.2 × 10^4 CFU/mL; CFU/mL, incubation time 13 d ([2]; hand soap formula): 5.0 × 10^2 CFU/mL; CFU/mL, incubation time 18 d ([2]; hand soap formula): 1.5 × 10^2 CFU/mL; CFU/mL, incubation time 20 d ([2]; hand soap formula): <5.0 × 10^1 CFU/mL; Minimum inhibitory concentration (A. brasiliensis): 0.02 |
| O=C(CCCCCCC(=O)NO)NO [Suberohydroxamic acid] | 0.5 | >0.5 | 0.5 | 0.5 | 0.5 | – |
| Cl.NOc1ccccc1 [O-phenylhydroxylamine HCl] | 0.2 | 0.3 | 0.06 | >0.5 | 0.1 | – |
| CCCCCCC(O)CO (centres unmarked) [Caprylyl Glycol] | – | – | – | – | – | Log Reduction Day 5 ([2]; HW): 0 Log; Log Reduction Day 12 ([2]; HW): 1 Log |
| CCCCCCCC(=O)O [Caprylic acid] | 0.5 | 0.5 | 0.5 | 0.5 | 0.5 | – |
| Cl.ONCc1ccccc1 [N-benzylhydroxylamine HCl] | 0.2 | 0.5 | 0.2 | 0.5 | 0.5 | – |
| CC(=O)O [Acetic acid] | 0.06 | 0.1 | 0.2 | 0.06 | 0.2 | – |
| CCO [Ethanol] | 10 | – | 0.47 | 10 | 10 | – |
